# In patent publication US9458133B2, “Isoquinolines as potassium ion channel inhibitors” (BRISTOL-MYERS SQUIBB COMPANY, priority 2013, dated 2016):
# Where “and” joins values, the source holds several entries; their conditions need not be identical. Identical values can stand only once.
# Biological target: T1, human Kv 1.5 (Homo sapiens, UniProt P22460)
# T1 construct: expressed in transfected cells; host or cells: mouse L-929 fibroblasts stably expressing human Kv1.5
# Experiment: Block of IKur current in patch clamped L-929 cells stably expressing human Kv1.5
# Format: cell-based
# Conditions: 0.3 μM; patch clamped mammalian L-929 cells expressing human Kv1.5 (IKur)
# From the text: Synders, D. J. et al., “A rapidly activating and slowly inactivating potassium channel cloned from human heart: functional analysis after stable mammalian cell culture expression”, J. Gen. Physiol., 101:513-543 (1993). […]
# T1 sequence (P22460 whole entry): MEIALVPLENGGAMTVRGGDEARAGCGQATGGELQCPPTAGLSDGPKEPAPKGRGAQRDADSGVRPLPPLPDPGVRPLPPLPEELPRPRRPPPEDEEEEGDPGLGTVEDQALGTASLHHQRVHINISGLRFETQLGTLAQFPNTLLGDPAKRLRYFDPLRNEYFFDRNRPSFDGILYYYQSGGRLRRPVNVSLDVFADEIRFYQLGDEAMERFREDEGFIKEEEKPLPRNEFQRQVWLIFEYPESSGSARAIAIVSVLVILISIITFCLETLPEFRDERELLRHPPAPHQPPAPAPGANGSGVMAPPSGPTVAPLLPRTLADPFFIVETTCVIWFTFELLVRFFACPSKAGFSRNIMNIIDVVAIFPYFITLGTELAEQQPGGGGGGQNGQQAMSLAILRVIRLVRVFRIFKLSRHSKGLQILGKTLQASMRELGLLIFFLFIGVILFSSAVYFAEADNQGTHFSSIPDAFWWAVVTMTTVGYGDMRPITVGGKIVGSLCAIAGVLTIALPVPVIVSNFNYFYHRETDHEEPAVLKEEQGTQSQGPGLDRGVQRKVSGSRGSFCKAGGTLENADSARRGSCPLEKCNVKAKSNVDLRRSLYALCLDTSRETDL
row,Structure (SMILES),KV1_5% Inh L929 @0.3 μM
1,"NC(=O)c1cncc(-c2cc3cccc(-c4ccccc4)c3c(NCc3ccccn3)n2)c1 [Example 9, 5-(8-Phenyl-1-((pyridin-2-ylmethyl)amino)isoquinolin-3-yl)nicotinamide]",81.32% and 50.45%

# Same assay, conditions: L929, 0.3 μM; patch clamped mammalian L-929 cells expressing human Kv1.5 (IKur); read-out: KV1_5% Inh L929 @0.3 μM
row,Structure (SMILES),inhibition at 0.3 µM
1,"N#Cc1ccc(-c2c(Cl)nc(NCc3ccccn3)c3c(-c4ccccc4)cccc23)cc1 [Example 56, 4-(3-chloro-8-phenyl-1-(pyridin-2-ylmethylamino)isoquinolin-4-yl)benzonitrile]",89.7%
2,"NC(=O)c1cccc(-c2c(Cl)nc(NCc3ccccn3)c3c(-c4ccccc4)cccc23)c1 [Example 66, 3-(3-chloro-8-phenyl-1-(pyridin-2-ylmethylamino)isoquinolin-4-yl)benzamide]",99.3%
3,"CC(=O)Nc1cncc(-c2cc3cccc(-c4ccccc4)c3c(NCc3ccccn3)n2)c1 [Example 3, N-(5-(8-Phenyl-1-(pyridin-2-ylmethylamino)isoquinolin-3-yl)pyridin-3-yl)acetamide]",71.9%
4,"NS(=O)(=O)c1ccccc1-c1cc2cccc(-c3ccccc3)c2c(NCc2ccccn2)n1 [Example 65, 2-(8-phenyl-1-(pyridin-2-ylmethylamino)isoquinolin-3-yl)benzenesulfonamide]",50.5%
5,"c1ccc(-c2cccc3cc(-c4cc[nH]n4)nc(NCc4ccccn4)c23)cc1 [Example 23, 8-phenyl-3-(1H-pyrazol-3-yl)-N-(pyridin-2-ylmethyl)isoquinolin-1-amine]",80.2%
6,"Nc1ccc(-c2c(Cl)nc(NCc3ccccn3)c3c(-c4ccccc4)cccc23)cn1 [Example 77, 4-(6-aminopyridin-3-yl)-3-chloro-8-phenyl-N-(pyridin-2-ylmethyl)isoquinolin-1-amine]",99%
7,"NC(=O)CC(=O)Nc1cccc(-c2c(Cl)nc(NCc3ccccn3)c3c(-c4ccccc4)cccc23)c1 [Example 13, N1-(3-(3-Chloro-8-phenyl-1-(pyridin-2-ylmethylamino)isoquinolin-4-yl)phenyl)malonamide]",97.7%
8,"COc1cc(-c2c(Cl)nc(NCc3ccccn3)c3c(-c4ccccc4)cccc23)ccn1 [Example 62, 3-chloro-4-(2-methoxypyridin-4-yl)-8-phenyl-N-(pyridin-2-ylmethyl)isoquinolin-1-amine]",95.6%
9,"NS(=O)(=O)c1cncc(-c2cnc(NCc3ccccn3)c3c(-c4ccccc4)cccc23)c1 [Example 11, 5-(8-Phenyl-1-(pyridin-2-ylmethylamino)isoquinolin-4-yl)pyridine-3-sulfonamide]",98.9%
10,"CC(Nc1nc(Cl)c(-c2cccc(S(N)(=O)=O)c2)c2cccc(-c3ccccc3)c12)c1ccccc1 (centres unmarked) [Example 79, 3-(3-chloro-8-phenyl-1-(1-phenylethylamino)isoquinolin-4-yl)benzenesulfonamide]",67.5%
11,"COc1ccc(-c2cc3cccc(-c4ccccc4)c3c(NCc3ccccn3)n2)cn1 [Example 67, 3-(6-methoxypyridin-3-yl)-8-phenyl-N-(pyridin-2-ylmethyl)isoquinolin-1-amine]",96.9%
12,"NC(=O)Nc1cncc(-c2cc3cccc(-c4ccccc4)c3c(NCc3ccccn3)n2)c1 [Example 4, 1-(5-(8-Phenyl-1-(pyridin-2-ylmethylamino)isoquinolin-3-yl)pyridin-3-yl)urea]",88.7%
13,"NS(=O)(=O)c1cncc(-c2cc3cccc(-c4ccc(F)cc4)c3c(NCc3ccccn3)n2)c1 [Example 21, 5-(8-(4-fluorophenyl)-1-(pyridin-2-ylmethylamino)isoquinolin-3-yl)pyridine-3-sulfonamide]",50.6%
14,"CS(=O)(=O)Nc1ccc(-c2cc3cccc(-c4ccccc4)c3c(NCc3ccccn3)n2)cn1 [Example 63, N-(5-(8-phenyl-1-(pyridin-2-ylmethylamino)isoquinolin-3-yl)pyridin-2-yl)methanesulfonamide]",53.2%
15,"CC(C)CCNc1nc(-c2cncc(S(N)(=O)=O)c2)cc2cccc(-c3ccccc3)c12 [Example 25, 5-(1-(isopentylamino)-8-phenylisoquinolin-3-yl)pyridine-3-sulfonamide]",53.2%
16,"Nc1ccc(-c2cc3cccc(-c4ccccc4)c3c(NCc3ccccn3)n2)cn1 [Example 58, 3-(6-aminopyridin-3-yl)-8-phenyl-N-(pyridin-2-ylmethyl)isoquinolin-1-amine]",22.8%
17,"Nc1ccc(-c2c(Cl)nc(NCc3ccccn3)c3c(-c4ccccc4)cccc23)cc1 [Example 68, 4-(4-aminophenyl)-3-chloro-8-phenyl-N-(pyridin-2-ylmethyl)isoquinolin-1-amine]",98.3%
18,"NS(=O)(=O)c1cncc(-c2cc3cccc(-c4ccccc4)c3c(NCc3ncccc3F)n2)c1 [Example 22, 5-(1-((3-fluoropyridin-2-yl)methylamino)-8-phenylisoquinolin-3-yl)pyridine-3-sulfonamide]",94%
19,"CS(=O)(=O)Nc1cccc(-c2cc3cccc(-c4ccccc4)c3c(NCc3ccccn3)n2)c1 [Example 35, N-(3-(8-phenyl-1-(pyridin-2-ylmethylamino)isoquinolin-3-yl)phenyl)methanesulfonamide]",36.2%

row,Structure (SMILES),inhibition at 0.3 µM
1,"NS(=O)(=O)c1cncc(-c2cc3cccc(-c4ccccc4)c3c(N[C@H]3CCC[C@@H]3OCc3ccccc3)n2)c1 [Example 73, 5-(1-((1S,2S)-2-(benzyloxy)cyclopentylamino)-8-phenylisoquinolin-3-yl)pyridine-3-sulfonamide]",56.3%
2,"NS(=O)(=O)c1cncc(-c2c(Cl)nc(NCc3ccccn3)c3c(-c4ccccc4)cccc23)c1 [Example 10, 5-(3-Chloro-8-phenyl-1-(pyridin-2-ylmethylamino)isoquinolin-4-yl)pyridine-3-sulfonamide]",99%
3,"N#Cc1cccc(-c2cc3cccc(-c4ccccc4)c3c(NCc3ccccn3)n2)c1 [Example 39, 3-(8-phenyl-1-(pyridin-2-ylmethylamino)isoquinolin-3-yl)benzonitrile]",66.8%
4,"NS(=O)(=O)c1ccc(-c2cnc(NCc3ccccn3)c3c(-c4ccccc4)cccc23)cc1 [Example 76, 4-(8-phenyl-1-(pyridin-2-ylmethylamino)isoquinolin-4-yl)benzenesulfonamide]",97.2%
5,"NS(=O)(=O)c1ccc(-c2c(Cl)nc(NCc3ccccn3)c3c(-c4ccccc4)cccc23)cc1 [Example 55, 4-(3-chloro-8-phenyl-1-(pyridin-2-ylmethylamino)isoquinolin-4-yl)benzenesulfonamide]",97.6%
6,"NS(=O)(=O)c1cncc(-c2cc3cccc(-c4ccccc4)c3c(NCCOc3ccccc3)n2)c1 [Example 52, 5-(1-(2-phenoxyethylamino)-8-phenylisoquinolin-3-yl)pyridine-3-sulfonamide]",55.8%
7,"CS(=O)(=O)Nc1cccc(-c2c(Cl)nc(NCc3ccccn3)c3c(-c4ccccc4)cccc23)c1 [Example 70, N-(3-(3-chloro-8-phenyl-1-(pyridin-2-ylmethylamino)isoquinolin-4-yl)phenyl)methanesulfonamide]",95.7%
8,"Cc1cc(C)cc(CNc2nc(-c3cncc(S(N)(=O)=O)c3)cc3cccc(-c4ccccc4)c23)c1 [Example 53, 5-(1-(3,5-dimethylbenzylamino)-8-phenylisoquinolin-3-yl)pyridine-3-sulfonamide]",40.1%
9,"CC(=O)Nc1ccc(-c2cc3cccc(-c4ccccc4)c3c(NCc3ccccn3)n2)cn1 [Example 64, N-(5-(8-phenyl-1-(pyridin-2-ylmethylamino)isoquinolin-3-yl)pyridin-2-yl)acetamide]",57.5%
10,"NS(=O)(=O)c1cncc(-c2cc3cccc(-c4ccccc4)c3c(NCc3csc(-c4ccccc4)n3)n2)c1 [Example 72, 5-(8-phenyl-1-((2-phenylthiazol-4-yl)methylamino)isoquinolin-3-yl)pyridine-3-sulfonamide]",16.1%
11,"CC(=O)Nc1cccc(-c2c(Cl)nc(NCc3ccccn3)c3c(-c4ccccc4)cccc23)c1 [Example 60, N-(3-(3-chloro-8-phenyl-1-(pyridin-2-ylmethylamino)isoquinolin-4-yl)phenyl)acetamide]",96.2%
12,"NC(=O)c1cccc(-c2cc3cccc(-c4ccccc4)c3c(NCc3ccccn3)n2)c1 [Example 41, 3-(8-phenyl-1-(pyridin-2-ylmethylamino)isoquinolin-3-yl)benzamide]",54.1%
13,"NS(=O)(=O)c1cncc(-c2cc3cccc(-c4ccccc4)c3c(NCc3cccc(Cl)c3Cl)n2)c1 [Example 43, 5-(1-(2,3-dichlorobenzylamino)-8-phenylisoquinolin-3-yl)pyridine-3-sulfonamide]",16.3%
14,"CS(=O)(=O)Nc1cncc(-c2c(Cl)nc(NCc3ccccn3)c3c(-c4ccccc4)cccc23)c1 [Example 47, N-(5-(3-chloro-8-phenyl-1-(pyridin-2-ylmethylamino)isoquinolin-4-yl)pyridin-3-yl)methanesulfonamide]",98.1%
15,"NS(=O)(=O)c1cccc(-c2cc3cccc(-c4ccccc4)c3c(NCCCc3ccccc3)n2)c1 [Example 44, 3-(8-phenyl-1-(3-phenylpropylamino)isoquinolin-3-yl)benzenesulfonamide]",18.6%
16,"NC(=O)c1ccc(-c2c(Cl)nc(NCc3ccccn3)c3c(-c4ccccc4)cccc23)cc1 [Example 57, 4-(3-chloro-8-phenyl-1-(pyridin-2-ylmethylamino)isoquinolin-4-yl)benzamide]",98.6%
17,"Cc1cnc(CNc2nc(-c3cncc(S(N)(=O)=O)c3)cc3cccc(-c4ccccc4)c23)cn1 [Example 74, 5-(1-((5-methylpyrazin-2-yl)methylamino)-8-phenylisoquinolin-3-yl)pyridine-3-sulfonamide]",79.5%
18,"N#Cc1ccc(-c2cc3cccc(-c4ccccc4)c3c(NCc3ccccn3)n2)cc1 [Example 40, 4-(8-phenyl-1-(pyridin-2-ylmethylamino)isoquinolin-3-yl)benzonitrile]",92.3%
